Reference: patent US10470993B2, “Tooth remineralization compositions and methods” (priority 2013, dated 2019)

Tested on: S. mutans
Assay type: cell-based
Procedure: Chitosan is a known antimicrobial. The antimicrobial activities of chitosans were determined with XTT assay based on the measurement of bacterial metabolic activities. The bacteria include S. sanguis, S. fecalis, and S. mutans. […] The metabolic activity and viability of S. mutans was decreased with the increase of the molecular weight of chitosan from 1K to 10K, as shown in FIG. 3. […] The relative viability of S. mutans treated with chitosan 10K was only about 10% as compared to the control. […] The chitosan with molecular weight of 10K reached the greatest inhibition effect against S. mutans in our XTT assay.
The antimicrobial activity of chitosan 10K was tested on three different oral bacteria which are major bacteria responsible for the occurrence of dental caries. […] The antimicrobial effects are concentration dependent and increased with increased chitosan concentration.

Substance	relative viability of S. mutans as compared to the control
chitosan [chitosan 5K]	55%
chitosan [chitosan 10K]	about 10%
